The source of these data is ChEMBL document CHEMBL3526033, “Identification of human liver cytochrome P450 enzymes involved in the metabolism of SCH 530348 (Vorapaxar), a potent oral thrombin protease-activated receptor 1 antagonist” (Drug Metab Dispos, 2011).

In series [1] the target is T1, Cytochrome P450 1A2 (Homo sapiens, UniProt P05177).
T1 sequence (P05177 whole entry): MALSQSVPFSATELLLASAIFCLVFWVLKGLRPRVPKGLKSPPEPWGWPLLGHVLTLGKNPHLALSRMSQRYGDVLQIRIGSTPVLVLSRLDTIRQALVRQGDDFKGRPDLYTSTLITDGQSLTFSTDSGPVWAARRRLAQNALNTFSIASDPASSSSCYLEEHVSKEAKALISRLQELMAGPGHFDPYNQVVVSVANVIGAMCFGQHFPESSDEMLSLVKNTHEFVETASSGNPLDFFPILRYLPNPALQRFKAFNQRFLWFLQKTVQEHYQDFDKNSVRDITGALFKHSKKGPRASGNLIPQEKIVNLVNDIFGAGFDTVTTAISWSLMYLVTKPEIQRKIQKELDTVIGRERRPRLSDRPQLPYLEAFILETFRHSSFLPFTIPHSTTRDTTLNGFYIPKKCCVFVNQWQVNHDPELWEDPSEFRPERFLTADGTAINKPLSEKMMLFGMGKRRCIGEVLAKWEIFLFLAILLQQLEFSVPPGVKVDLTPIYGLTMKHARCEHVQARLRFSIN
The experiment in a line: Activity of human recombinant CYP1A2 assessed as enzyme-mediated (3R,3aS,4S,4aR,7R,8aR,9aR)-7-amino-4-((E)-2-(5-(3-fluorophenyl)pyridin-2-yl)vinyl)-3-methyldecahydronaphtho[2,3-c]furan-1(3H)-one formation at 25 uM after 120 mins by LC-MS/MS analysis in presence of NADPH. The class given is ADME. The following applies: 2 h.

Series [2] concerns Liver microsome. The experiment in a line: Drug metabolism in human liver microsomes assessed as (3R,3aS,4S,4aR,7R,8aR,9aR)-7-amino-4-((E)-2-(5-(3-fluorophenyl)pyridin-2-yl)vinyl)-3-methyldecahydronaphtho[2,3-c]furan-1(3H)-one formation at 10 uM after 120 mins by LC-MS/MS analysis. The class given is ADME. The note with it: 2 h. In general terms: Liver microsomes are vesicles of endoplasmic reticulum, rich in cytochrome P450 enzymes.

Series [3] concerns the target Cytochrome P450 2E1 (Homo sapiens, UniProt P05181). The experiment in a line: Activity of human recombinant CYP2E1 assessed as enzyme-mediated 2-hydroxyethyl (1R,3aR,4aR,6R,8aR,9S,9aS)-9-((E)-2-(5-(3-fluorophenyl)pyridin-2-yl)vinyl)-1-methyl-3-oxododecahydronaphtho[2,3-c]furan-6-ylcarbamate formation at 25 uM after 120 mins by LC-MS/MS analysis in presence of NADPH. The note with it: 2 h. The class given is ADME.

In series [4] the test system is Liver microsome. Put plainly: Drug metabolism in human liver microsomes assessed as (3R,3aS,4S,4aR,7R,8aR,9aR)-7-amino-4-((E)-2-(5-(3-fluorophenyl)pyridin-2-yl)vinyl)-3-methyldecahydronaphtho[2,3-c]furan-1(3H)-one formation after 120 mins by LC-MS/MS analysis. The class given is ADME. The following applies: 2 h.
Series [5] has as its target Cytochrome P450 2C19 (Homo sapiens, UniProt P33261). Put plainly: Activity of human recombinant CYP2C19 assessed as enzyme-mediated drug metabolism at 10 uM after 120 mins by LC-MS/MS analysis. The following applies: 2 h. It is filed as ADME.
In series [6] the target is Cytochrome P450 2C18 (Homo sapiens, UniProt P33260). Put plainly: Activity of human recombinant CYP2C18 assessed as enzyme-mediated drug metabolism treated with 25 uM vorapaxar after 120 mins by LC-MS/MS analysis in presence of NADPH. The class given is ADME. The note with it: 2 h.
Series [7] has as its target Cytochrome P450 3A4 (Homo sapiens, UniProt P08684). The experiment in a line: Drug metabolism in human liver microsomes assessed as CYP3A4-mediated (3R,3aS,4S,4aR,7R,8aR,9aR)-7-amino-4-((E)-2-(5-(3-fluorophenyl)pyridin-2-yl)vinyl)-3-methyldecahydronaphtho[2,3-c]furan-1(3H)-one formation at 25 uM after 120 mins by LC-MS/MS analysis. The following applies: 2 h. The class given is ADME.

Series [8] deals with T2, Cytochrome P450 4F3 (Homo sapiens, UniProt Q08477).
T2 sequence (Q08477 whole entry): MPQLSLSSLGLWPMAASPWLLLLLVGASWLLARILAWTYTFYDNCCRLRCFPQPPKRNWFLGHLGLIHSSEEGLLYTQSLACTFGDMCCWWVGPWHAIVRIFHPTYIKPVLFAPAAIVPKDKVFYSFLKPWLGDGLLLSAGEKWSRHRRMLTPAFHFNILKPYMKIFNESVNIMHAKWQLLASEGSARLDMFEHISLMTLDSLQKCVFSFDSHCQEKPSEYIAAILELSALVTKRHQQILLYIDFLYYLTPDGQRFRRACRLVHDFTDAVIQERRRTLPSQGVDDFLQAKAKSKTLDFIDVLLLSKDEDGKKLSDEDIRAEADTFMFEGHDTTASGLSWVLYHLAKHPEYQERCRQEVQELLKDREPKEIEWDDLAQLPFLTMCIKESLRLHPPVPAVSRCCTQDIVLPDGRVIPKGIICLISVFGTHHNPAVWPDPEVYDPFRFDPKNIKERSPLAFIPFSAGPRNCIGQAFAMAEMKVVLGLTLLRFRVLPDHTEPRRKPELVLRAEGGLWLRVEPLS
The experiment in a line: Activity of human recombinant CYP4F3A assessed as enzyme-mediated drug metabolism treated with 25 uM vorapaxar after 120 mins by LC-MS/MS analysis in presence of NADPH. It is filed as ADME. The note with it: 2 h.

Series [9] is described as follows: Drug level in human lung microsomes treated with 25 uM vorapaxar after 120 mins by LC-MS/MS analysis in presence of NADPH. It is filed as ADME, microsome. The following applies: 2 h.
Series [10] concerns the target T1, Cytochrome P450 1A2. Put plainly: Activity of human recombinant CYP1A2 assessed as enzyme-mediated drug metabolism treated with 25 uM vorapaxar after 120 mins by LC-MS/MS analysis in presence of NADPH. The class given is ADME. The following applies: 2 h.
Series [11] can be described thus: Drug metabolism in human intestine microsomes assessed as ((4aR,6R)-9-{2-[(1R,4S)-5-((S)-3-Fluoro-phenyl)-pyridin-2-yl]-vinyl}-1-methyl-3-oxo-dodecahydro-naphtho[2,3-c]furan-6-yl)-carbamic acid(R)-2-hydroxy-ethyl ester formation by LC-MS/MS analysis in presence of 100 uM astemizole. It is filed as ADME.
In series [12] the test system is Liver microsome. Put plainly: Drug metabolism in human liver microsomes assessed as (3R,3aS,4S,4aR,7R,8aR,9aR)-7-amino-4-((E)-2-(5-(3-fluorophenyl)pyridin-2-yl)vinyl)-3-methyldecahydronaphtho[2,3-c]furan-1(3H)-one formation at 10 to 25 uM after 120 mins by LC-MS/MS analysis in presence of orphenadrine. It is filed as ADME. The following applies: 2 h.
Series [13] has as its system Liver microsome. The experiment in a line: Drug metabolism in human liver microsomes assessed as (3R,3aS,4S,4aR,7R,8aR,9aR)-7-amino-4-((E)-2-(5-(3-fluorophenyl)pyridin-2-yl)vinyl)-3-methyldecahydronaphtho[2,3-c]furan-1(3H)-one formation at 10 to 25 uM after 120 mins by LC-MS/MS analysis in presence of CYP3A4-specific inhibitory monoclonal antibody. It is filed as ADME. The following applies: 2 h.

Series [14] concerns Liver microsome. The experiment in a line: Drug metabolism in human liver microsomes assessed as (3R,3aS,4S,4aR,7R,8aR,9aR)-7-amino-4-((E)-2-(5-(3-fluorophenyl)pyridin-2-yl)vinyl)-3-methyldecahydronaphtho[2,3-c]furan-1(3H)-one formation at 10 to 25 uM after 120 mins by LC-MS/MS analysis in presence of quinidine. It is filed as ADME. The note with it: 2 h.
Series [15] concerns Liver microsome. Put plainly: Drug metabolism in human liver microsomes assessed as (3R,3aS,4S,4aR,7R,8aR,9aR)-7-amino-4-((E)-2-(5-(3-fluorophenyl)pyridin-2-yl)vinyl)-3-methyldecahydronaphtho[2,3-c]furan-1(3H)-one formation at 10 to 25 uM after 120 mins by LC-MS/MS analysis in presence of tranylcypromine. It is filed as ADME. The note with it: 2 h.

Cytochrome P450 2C18, sequence (P33260 whole entry): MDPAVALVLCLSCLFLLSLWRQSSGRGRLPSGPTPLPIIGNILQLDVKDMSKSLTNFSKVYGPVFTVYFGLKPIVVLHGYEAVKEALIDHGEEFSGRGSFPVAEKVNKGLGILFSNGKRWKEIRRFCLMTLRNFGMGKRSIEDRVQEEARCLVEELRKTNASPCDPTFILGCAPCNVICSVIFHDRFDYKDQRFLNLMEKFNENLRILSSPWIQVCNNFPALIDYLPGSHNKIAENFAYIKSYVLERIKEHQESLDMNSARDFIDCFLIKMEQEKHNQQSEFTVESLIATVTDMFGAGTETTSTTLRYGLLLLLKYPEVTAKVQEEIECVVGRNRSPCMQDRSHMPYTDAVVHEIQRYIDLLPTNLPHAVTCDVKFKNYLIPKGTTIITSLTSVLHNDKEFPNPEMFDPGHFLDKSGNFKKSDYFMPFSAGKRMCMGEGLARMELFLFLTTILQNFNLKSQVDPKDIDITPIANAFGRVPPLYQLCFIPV
Cytochrome P450 2C19, sequence (P33261 whole entry): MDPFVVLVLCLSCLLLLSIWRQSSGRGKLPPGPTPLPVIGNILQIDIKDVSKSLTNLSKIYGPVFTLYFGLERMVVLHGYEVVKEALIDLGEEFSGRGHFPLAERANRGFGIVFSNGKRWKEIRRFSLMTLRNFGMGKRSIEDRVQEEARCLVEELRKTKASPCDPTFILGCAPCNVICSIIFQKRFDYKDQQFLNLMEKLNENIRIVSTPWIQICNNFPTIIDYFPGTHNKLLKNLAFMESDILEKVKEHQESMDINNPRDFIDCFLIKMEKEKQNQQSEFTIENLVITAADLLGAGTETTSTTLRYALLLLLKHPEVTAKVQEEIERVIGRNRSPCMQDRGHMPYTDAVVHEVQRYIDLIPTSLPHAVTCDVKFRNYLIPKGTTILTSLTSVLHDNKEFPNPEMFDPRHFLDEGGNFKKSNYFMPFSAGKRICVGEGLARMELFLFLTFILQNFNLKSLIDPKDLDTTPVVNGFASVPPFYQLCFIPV
Cytochrome P450 3A4, sequence (P08684 whole entry): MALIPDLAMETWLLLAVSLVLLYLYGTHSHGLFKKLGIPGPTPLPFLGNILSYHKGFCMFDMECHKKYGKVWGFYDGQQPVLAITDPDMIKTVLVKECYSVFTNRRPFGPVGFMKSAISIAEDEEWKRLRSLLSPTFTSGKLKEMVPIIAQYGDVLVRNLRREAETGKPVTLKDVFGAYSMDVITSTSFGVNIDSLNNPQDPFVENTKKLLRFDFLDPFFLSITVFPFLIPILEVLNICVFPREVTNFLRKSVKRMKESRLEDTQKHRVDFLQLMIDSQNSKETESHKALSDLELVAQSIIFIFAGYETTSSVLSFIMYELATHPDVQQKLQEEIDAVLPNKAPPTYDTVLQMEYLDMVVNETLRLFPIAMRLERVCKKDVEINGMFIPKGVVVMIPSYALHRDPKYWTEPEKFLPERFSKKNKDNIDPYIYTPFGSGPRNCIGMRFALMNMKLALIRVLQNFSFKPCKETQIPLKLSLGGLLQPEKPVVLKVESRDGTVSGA
Cytochrome P450 2E1, sequence (P05181 whole entry): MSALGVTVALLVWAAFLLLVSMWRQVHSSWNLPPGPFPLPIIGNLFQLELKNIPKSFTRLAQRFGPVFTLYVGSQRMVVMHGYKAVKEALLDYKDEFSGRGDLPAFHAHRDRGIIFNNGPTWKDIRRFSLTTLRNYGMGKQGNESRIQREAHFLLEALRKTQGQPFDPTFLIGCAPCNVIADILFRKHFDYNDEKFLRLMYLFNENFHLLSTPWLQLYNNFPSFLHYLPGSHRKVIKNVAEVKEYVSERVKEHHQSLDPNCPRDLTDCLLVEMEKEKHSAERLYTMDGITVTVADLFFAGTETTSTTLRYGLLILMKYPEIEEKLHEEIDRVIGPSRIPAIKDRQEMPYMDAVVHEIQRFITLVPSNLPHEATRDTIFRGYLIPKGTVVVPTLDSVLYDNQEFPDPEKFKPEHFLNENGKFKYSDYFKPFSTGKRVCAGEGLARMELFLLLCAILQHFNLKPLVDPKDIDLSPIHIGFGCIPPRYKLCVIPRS

Usually Km stands for the substrate concentration at which the rate is half of its maximum. Turning to `CCOC(=O)N[C@@H]1CC[C@@H]2[C@@H](C1)C[C@H]1C(=O)O[C@H](C)[C@H]1[C@H]2/C=[14CH]/c1ccc(-c2cccc(F)c2)cn1`, the Drug metabolism entry is given as “metabolite_detected” in series [1], “metabolite_not_detected” in series [2], “metabolite_detected” in [3] and “metabolite_not_detected” in series [5]. The Michaelis constant (Km) in series [4] was determined as 23.5 µM.

With `C[C@H]1OC(=O)[C@@H]2C[C@@H]3C[C@H](NC(=O)OCCO)CC[C@H]3[C@H](/C=C/c3ccc(-c4cccc(F)c4)cn3)[C@H]12`, the Drug metabolism result in series [6], in series [7], in series [8], in series [9] and in series [10] was “metabolite_detected” in each case.

Regarding `CCOC(=O)N[C@@H]1CC[C@@H]2[C@@H](C1)C[C@H]1C(=O)O[C@H](C)[C@H]1[C@H]2/C=C/c1ccc(-c2cccc(F)c2)cn1` [VORAPAXAR], the “inhibition (INH)” value in series [11] was determined as 77%. Also, the Drug metabolism entry is “metabolite_not_detected” in series [12], “metabolite_not_detected” in [13], “metabolite_detected” in series [14] and “metabolite_not_detected” in [15].
